We go through eleven molecules from patent US10414763B2 (CANCER RESEARCH TECHNOLOGY LIMITED, priority 2014, dated 2019).

In general, IC50 refers to the concentration needed to halve the response being measured.

The assay addresses T1, full-length human PKCι (Homo sapiens, UniProt P41743).
T1 construct: Recombinant, full-length human PKCι expressed in Sf21 insect cells is also commercially available; purchased EMD Millipore; host or cells: Sf21 insect cells (baculovirus)
T1 sequence (P41743 1-596): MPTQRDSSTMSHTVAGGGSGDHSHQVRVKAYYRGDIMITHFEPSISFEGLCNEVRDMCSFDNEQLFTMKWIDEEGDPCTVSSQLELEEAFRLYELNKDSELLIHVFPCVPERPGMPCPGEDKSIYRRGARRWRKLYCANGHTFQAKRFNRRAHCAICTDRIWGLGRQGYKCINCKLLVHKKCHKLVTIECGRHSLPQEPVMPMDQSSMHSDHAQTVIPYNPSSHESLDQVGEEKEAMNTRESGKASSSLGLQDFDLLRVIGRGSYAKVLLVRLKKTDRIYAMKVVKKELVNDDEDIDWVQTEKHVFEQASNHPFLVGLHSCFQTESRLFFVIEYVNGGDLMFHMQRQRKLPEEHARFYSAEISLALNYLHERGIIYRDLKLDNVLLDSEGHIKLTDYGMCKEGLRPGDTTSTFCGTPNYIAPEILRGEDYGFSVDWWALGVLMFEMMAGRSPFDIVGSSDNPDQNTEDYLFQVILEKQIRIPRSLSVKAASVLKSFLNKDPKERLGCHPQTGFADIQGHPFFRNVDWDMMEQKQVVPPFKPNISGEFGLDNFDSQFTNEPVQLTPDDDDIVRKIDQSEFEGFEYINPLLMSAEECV
Description: PKCι IC50 IMAP fluorescence polarisation assay, full-length enzyme, 150 μM ATP. Format: biochemical. The following applies: read-out: IC50 in IMAP assay against full length PKCi at 150 μM ATP. The procedure, abridged:
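IMAP fluorescence polarisation kinase assay: 15 pM baculovirus-expressed human PKCiota with 100 nM FAM-pseudosubstrate peptide and 150 μM ATP, 1 h at 25 °C. IMAP detection reagent then 2 h at 25 °C before FP measurement. Inhibition referenced to no-compound and no-enzyme controls for IC50 fitting.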
(In fluorescence polarisation assays a small probe gives low polarisation when free and higher when bound to something large.)

The structures appear in SMILES notation.

On to `O[C@H]1CNCC[C@H]1Nc1nc(-c2ccnc(Nc3nc(F)cc(F)c3F)c2)nc2cncc(C3CCC3)c12` (racemic) [Example 294, rac-(3S,4R)-4-{5-Cyclobutyl-2-[2-(3,4,6-trifluoro-pyridin-2-ylamino)-pyridin-4-yl]-pyrido[3,4-d]pyrimidin-4-ylamino}-piperidin-3-ol], for which the IC50 is under 100 nM.
Take `CC1(C)CNCCC1Nc1nc(-c2ccnc(Nc3nc(F)c(F)cc3F)c2)nc2cncc(C3CCC3)c12` (centres unmarked) [Example 71, {5-Cyclobutyl-2-[2-(3,5,6-trifluoro-pyridin-2-ylamino)-pyridin-4-yl]-pyrido[3,4-d]pyrimidin-4-yl}-(3,3-dimethyl-piperidin-4-yl)-amine]: the IC50 was under 100 nM.
Then `Cc1cc(C#N)cnc1Nc1cc(-c2nc(N[C@H]3CCNCC3(C)C)c3c(C4CCC4)cncc3n2)ccn1` [Example 323, 6-{4-[5-Cyclobutyl-4-((S)-3,3-dimethyl-pipcridin-4-ylamino)-pyrido[3,4-d]pyrimidin-2-yl]-pyridin-2-ylamino}-5-methyl-nicotinonitrile], with under 100 nM; and `Cc1cc2c(-c3nc(N(C)[C@H]4CCNCC4(C)C)c4c(C5CC5)cncc4n3)ccnc2[nH]1` [Example 212, [5-Cyclopropyl-2-(2-methyl-1H-pyrrolo[2,3-b]pyridin-4-yl)-pyrido[3,4-d]pyrimidin-4-yl]-((S)-3,3-dimethyl-piperidin-4-yl)-methyl-amine], with under 100 nM; and `CN(c1nc(-c2ccnc3[nH]c4ccccc4c23)nc2cncc(C3CCC3)c12)C1CCNCC1(C)C` (centres unmarked) [Example 31, [5-Cyclobutyl-2-(9H-pyrido[2,3-b]indol-4-yl)-pyrido[3,4-d]pyrimidin-4-yl]-(3,3-dimethyl-piperidin-4-yl)-methyl-amine], with under 100 nM.
Consider `CC1(C)CNCC[C@@H]1Nc1nc(-c2ccnc3[nH]c(-c4cccnc4)cc23)nc2cncc(C3CC3)c12` [Example 395, [5-Cyclopropyl-2-(2-pyridin-3-yl-1H-pyrrolo[2,3-b]pyridin-4-yl)-pyrido[3,4-d]pyrimidin-4-yl]-((S)-3,3-dimethyl-piperidin-4-yl)-amine], for which the IC50 is under 100 nM.
In the case of `CC1(C)CNCC[C@H]1Nc1nc(-c2ccnc(Nc3nc(F)ccc3F)c2)nc2cncc(C3CC3)c12` [Example 157, {5-Cyclopropyl-2-[2-(3,6-difluoro-pyridin-2-ylamino)-pyridin-4-yl]-pyrido[3,4-d]pyrimidin-4-yl}-((R)-3,3-dimethyl-piperidin-4-yl)-amine], the IC50 lay within 100 to 1000 nM.
Take `c1ccn2nc(Nc3cc(-c4nc(N5CCC6NCCCC65)c5c(C6CC6)cncc5n4)ccn3)nc2c1` (centres unmarked) [Example 244, {4-[5-Cyclopropyl-4-(octahydro-pyrrolo[3,2-b]pyridin-1-yl)-pyrido[3,4-d]pyrimidin-2-yl]-pyridin-2-yl}-[1,2,4]triazolo[1,5-a]pyridin-2-yl-amine]: the IC50 was under 100 nM.
For `Fc1ccc(-c2cc3c(-c4nc(N5CCNCC5)c5c(C6CC6)cncc5n4)ccnc3[nH]2)c(F)n1` [Example 40, 5-Cyclopropyl-2-[2-(2,6-difluoro-pyridin-3-yl)-1H-pyrrolo[2,3-b]pyridin-4-yl]-4-piperazin-1-yl-pyrido[3,4-d]pyrimidine], the IC50 was under 100 nM.
Consider `O[C@H]1CNCC[C@H]1Nc1nc(-c2ccnc(Nc3ncc(F)cc3F)c2)nc2cncc(C3CC3)c12` (racemic) [Example 306, rac-(3S,4R)-4-{5-Cyclopropyl-2-[2-(3,5-difluoro-pyridin-2-ylamino)-pyridin-4-yl]-pyrido[3,4-d]pyrimidin-4-ylamino}-piperidin-3-ol], for which the IC50 lay within 100 to 1000 nM.
Consider `C[C@@H]1CNCC[C@H]1Nc1nc(-c2ccnc(Nc3ncccc3F)c2)nc2cncc(C3CC3)c12` (racemic) [Example 302, {5-Cyclopropyl-2-[2-(3-fluoro-pyridin-2-ylamino)-pyridin-4-yl]-pyrido[3,4-d]pyrimidin-4-yl}-(rac-(3R,4R)-3-methyl-piperidin-4-yl)-amine], for which the IC50 was under 100 nM.
